The test system of data set [1] is S. aureus ATCC43300. Nature of the data set: MIC/MBC, micro broth dilution. Type of data set: cell-based, Staphylococcus aureus. As to conditions: Staphylococcus aureus, ATCC43300; micro broth dilution, 1 × 10^5 CFU/mL, repeated thrice; read-out: MIC. How it is done: The minimum inhibitory concentration (MIC) of the peptides was assayed using the micro broth dilution method, which is an important indicator of the antibacterial activity of the AMPs ([Liu et al., 2021]). […] The MIC was defined as the lowest concentration of ones at which no visible bacterial growth was observed. All the assays were repeated thrice.
Background: Broth dilution looks for growth in wells or tubes with falling amounts of substance.

The test system of data set [2] is S. aureus ATCC43300. Put plainly: Time-kill curve (bacterial kinetics in vitro). Type of data set: cell-based, Staphylococcus aureus. As to conditions: 2× MIC, 1 × 10^5 CFU/mL, 37°C, 250 rpm, colony counting. How it is done: The bactericidal efficiency of Ple-AB was evaluated by plotting a time-kill curve ([Zheng et al., 2021]). Single colonies of the S. aureus ATCC43300 were picked for overnight activation, and 1% were transferred and incubated at 37°C until the logarithmic growth phase. […] Samples of 100 uL of bacteria were taken at 0, 0.5, 1, 2, 4, 6, 8, 10, 12, and 24 h, diluted, and coated to count the number of single colonies and plot the time-killing curve.

In a further data set the test system is E. coli O157. As to conditions: ref Yang et al., 2019; cited from earlier work. From the text:
(§1) Table 3 The MIC values of Ple-AB. | column: MIC (μg/mL) / Plectasin

Another data set deals with P. aeruginsoa CICC21630. The following applies: ref Yang et al., 2019; cited from earlier work.
Excerpt: as §1

In data set [3] the test system is S. aureus ATCC43300. As to conditions: ref Yang et al., 2019; cited from earlier work.
Excerpt: as §1

For the next data set, the system named is S. aureus CVCC546. As to conditions: ref Yang et al., 2019; cited from earlier work.
Excerpt: as §1

For another data set, the system named is S. aureus E48. The following applies: ref Yang et al., 2019; cited from earlier work.
Excerpt: as §1

The test system of a further data set is mouse erythrocytes. The following applies: 256 μg/mL; ref Zhang et al., 2011; Yang et al., 2019; cited from earlier work. From the text: The length, positive charge number, and amphiphilicity of the derived peptide Ple-AB were altered, reducing the peptide chain length from 40 to 36 amino acids, reducing the molecular weight from 4407.99 to 4006.66 Da, increasing the charge number from +1 to +3, and increasing the hydrophobicity from −0.695 to −0.469 (Table 1).

Data set [4] deals with S. aureus ATCC43300. As to conditions: ref Lei et al., 2018; cited from earlier work. From the text:
Clinical applications require drugs that exhibi ...

In brackets after ≈: the same amount, converted by molar mass. Like-named read-outs stand apart in the source and are kept apart here. Marks after values point to notes of the source that are not given here.

By MIC is commonly meant the least concentration at which growth counts as inhibited. As to `CN[C@H](CC(C)C)C(=O)N[C@H]1C(=O)N[C@@H](CC(N)=O)C(=O)N[C@H]2C(=O)N[C@H]3C(=O)N[C@H](C(=O)N[C@H](C(=O)O)c4cc(O)cc(O)c4-c4cc3ccc4O)[C@H](O)c3ccc(c(Cl)c3)Oc3cc2cc(c3O[C@@H]2O[C@H](CO)[C@@H](O)[C@H](O)[C@H]2O[C@H]2C[C@](C)(N)[C@H](O)[C@H](C)O2)Oc2ccc(cc2Cl)[C@H]1O` [vancomycin, reference compound], in the data set on S. aureus ATCC43300 [1], the MIC was found to be 1 µg/mL (≈ 0.69 µM). In the data set with S. aureus ATCC43300 [2], the “Time to kill all the strains” value was determined as 6 h.

Turning to `CC[C@H](C)[C@@H]1NC(=O)[C@H](CO)NC(=O)[C@H](CCCCN)NC(=O)[C@@H]2CSSC[C@@H](C(=O)N[C@@H](Cc3ccc(O)cc3)C(=O)O)NC(=O)[C@H](CCCCN)NC(=O)[C@@H]3CSSC[C@H](NC(=O)[C@H](CCC(N)=O)NC(=O)[C@H](CCSC)NC(=O)[C@H](CC(=O)O)NC(=O)[C@H](CC(=O)O)NC(=O)[C@H](CCC(=O)O)NC(=O)[C@H](CC(=O)O)NC(=O)[C@H](Cc4c[nH]c5ccccc45)NC(=O)[C@@H]4CCCN4C(=O)CNC(=O)[C@H](CC(N)=O)NC(=O)[C@@H](NC(=O)CNC(=O)[C@H](Cc4ccccc4)NC(=O)CN)CSSC[C@H](NC(=O)[C@H](Cc4ccc(O)cc4)NC(=O)CNC(=O)CNC(=O)[C@H](CCCCN)NC(=O)[C@H](Cc4ccc(O)cc4)NC(=O)CNC(=O)[C@H](CCCCN)NC1=O)C(=O)N[C@@H](C)C(=O)N[C@@H](CCCCN)C(=O)NCC(=O)NCC(=O)N[C@@H](Cc1ccccc1)C(=O)N[C@@H](C(C)C)C(=O)N3)C(=O)N[C@@H](Cc1c[nH]cn1)C(=O)N[C@@H](CC(N)=O)C(=O)N[C@@H](Cc1c[nH]cn1)C(=O)N2` [Plectasin], the MIC was >128 ^a μg/mL in the data set with E. coli O157; >128 ^a μg/mL in the data set with P. aeruginsoa CICC21630; 4^a μg/mL in the data set with S. aureus ATCC43300 [3]; 16^a μg/mL with S. aureus CVCC546; 4^a μg/mL with S. aureus E48. Also, the Hemolytic activity in the data set on mouse erythrocytes was 68%. For the same molecule, in the data set with S. aureus ATCC43300 [4], the “Time of co-incubation with simulated intestinal fluid after which activity is lost” value is 15 to 30 min.

These data come from article PMC10771296, “Plectasin: from evolution to truncation, expression, and better druggability” (Frontiers in Microbiology, 2023).
